In this data set the target is T1, PCC7942_orf1594 protein (Synechococcus elongatus, UniProt Q54765).
T1 construct: made in house; host or cells: E. coli BL21 (DE3)
T1 sequence (Q54765 1-341): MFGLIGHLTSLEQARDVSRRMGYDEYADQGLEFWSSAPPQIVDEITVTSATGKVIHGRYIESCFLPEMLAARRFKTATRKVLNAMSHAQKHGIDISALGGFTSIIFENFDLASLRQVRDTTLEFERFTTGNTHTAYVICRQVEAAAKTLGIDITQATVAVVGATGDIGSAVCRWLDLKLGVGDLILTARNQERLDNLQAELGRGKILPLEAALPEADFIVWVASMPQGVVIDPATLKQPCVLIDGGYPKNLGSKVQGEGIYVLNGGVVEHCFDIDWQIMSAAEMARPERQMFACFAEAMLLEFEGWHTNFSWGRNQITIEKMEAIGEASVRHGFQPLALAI
Briefly: Acyl-ACP or acyl-CoA reductase enzyme assay. Type of data set: biochemical, Synechococcus elongatus PCC7942. The following applies: for reduction to fatty aldehyde: 10 μM enzyme, MgCl2, NADPH, 1 h at 37° C. On the procedure:
The genomic DNA encoding S. elongatus […] orf1594 (SEQ ID NO:65) was cloned into the NcoI and XhoI sites of vector pET-28b under the control of the T7 promoter. The resulting PCC7942_orf1594 protein contained a C-terminal His-tag. An E. coli BL21 strain (DE3) (Invitrogen) was transformed with the plasmid and PCC7942_orf1594 protein was expressed and purified as described in Example 22. The protein solution was stored in the following buffer: 50 mM sodium phosphate, pH 7.5, 100 mM NaCl, 1 mM THP, 10% glycerol. Protein concentration was determined using the Bradford assay (Biorad). 2 mg/mL of PCC7942_orf1594 protein was obtained.
To test PCC7942_orf1594 protein for acyl-ACP or acyl-CoA reductase activity, the following enzyme assays were set-up. 100 μL reactions were set-up in 50 mM Tris-HCl buffer at pH 7.5 with the following components at their respective final concentrations: 10 μM of purified PCC7942_orf1594 protein, 0.01-1 mM acyl-CoA or acyl-ACP, 2 mM MgCl2, 0.2-2 mM NADPH. The reactions were incubated for 1 h at 37° C. and where stopped by adding 100 μL ethyl acetate (containing 5 mg/l 1-octadecene as internal standard). Samples were vortexed for 15 min and centrifuged at max speed for 3 min for phase separation. 80 μL of the top layer were transferred into GC glass vials and analyzed by GC/MS as described in Example 26. The amount of aldehyde formed was calculated based on the internal standard.
Next, the stereospecific hydride transfer from NADPH to a fatty aldehyde catalyzed by PCC7942_orf1594 was examined. Deutero-NADPH was prepared according to the following protocol. 5 mg of NADP and 3.6 mg of D-glucose-1-d was added to 2.5 mL of 50 mM sodium phosphate buffer (pH 7.0). Enzymatic production of labeled NADPH was initiated by the addition of 5 units of glucose dehydrogenase from either Bacillus megaterium (USB Corporation) for the production of R-(4-^2H)NADPH or Thermoplasma acidophilum (Sigma) for the production of S-(4-^2H)NADPH. The reaction was incubated for 15 min at 37° C., centrifuge-filtered using a 10 KDa MWCO Amicon Ultra centrifuge filter (Millipore), flash frozen on dry ice, and stored at −80° C.
The in vitro assay reaction contained 50 mM Tris-HCl (pH 7.5), 10 μM of purified PCC7942_orf1594 protein, 1 mM octadecanoyl-CoA, 2 mM MgCl2, and 50 μL deutero-NADPH (prepared as described above) in a total volume of 100 μL. After a 1 h incubation, the product of the enzymatic reaction was extracted and analyzed as described above. The resulting fatty aldehyde detected by GC/MS was octadecanal (see FIG. 34). Because hydride transfer from NADPH is stereospecific, both R-(4-^2H)NADPH and S-(4-^2H)NADPH were synthesized.

Setting [1] is: in the presence of 2 mM NADPH, read-out: Km for the reduction.

Like-named read-outs stand apart in the source and are kept apart here.

In general, Km refers to the concentration of substrate that gives half-maximal velocity. As for octadecenoyl-CoA, the “reduction to fatty aldehyde” value is on record as “able to reduce”. Besides, the Michaelis constant (Km) under setting [1] amounted to 82 ± 22 µM.
With `[2H]C1C=CN(C2OC(COP(=O)(O)OP(=O)(O)OCC3OC(n4cnc5c(N)ncnc54)C(OP(=O)(O)O)C3O)C(O)C2O)C=C1C(N)=O` (stereo not drawn) [S-(4-^2H)NADPH], the “stereospecific hydride transfer to fatty aldehyde” value (1 mM octadecanoyl-CoA, deutero-NADPH, 1 h) is “Octadecanal with a plus one unit mass was observed”.
For `CCCCCCCCCCCCCCCCCC(=O)SCCNC(=O)CCNC(=O)[C@H](O)C(C)(C)COP(=O)(O)OP(=O)(O)OC[C@H]1O[C@@H](n2cnc3c(N)ncnc32)[C@H](O)[C@@H]1OP(=O)(O)O` [octadecanoyl-CoA], the “reduction to fatty aldehyde” value is given as “able to reduce”.
In the case of `NC(=O)C1=CN([C@@H]2O[C@H](COP(=O)(O)OP(=O)(O)OC[C@H]3O[C@@H](n4cnc5c(N)ncnc54)[C@H](O)[C@@H]3O)[C@@H](O)[C@H]2O)C=CC1` [NADH], the “support of reductase activity as electron donor” value (octadecanoyl-CoA, Mg2+) was “did not support reductase activity”.
Regarding NADPH, the Km (in the presence of 0.5 mM octadecanoyl-CoA, read-out: Km value for NADPH) came to 400 ± 80 µM.
For the compound octadecenoyl-ACP, the “reduction to fatty aldehyde” value is on record as “able to reduce”. Under setting [1], the Michaelis constant (Km) came out at 7.8 ± 2 µM.

These data come from patent publication US9481899B2, “Methods and compositions for producing hydrocarbons” (priority 2008, dated 2016).
